Test results reported in ChEMBL document CHEMBL1158943, “Chemistry of Sponges, XI. 22-Deoxyvariabilin, a New Sesterterpene from the Sponge Thorecta sp” (J Nat Prod, 1991).
Activity calls are given as the source filed them.

How the values were obtained:
Assay type in all cases: functional, organism-based
[1] = tested on: Candida albicans; assay: Antimicrobial activity against Candida albicans at 100 ug/disk by standard disk method
[2] = tested on: Staphylococcus aureus; assay: Antimicrobial activity against Staphylococcus aureus at 100 ug/disk by standard disk method
[3] = tested on: Bacillus subtilis; assay: Antimicrobial activity against Bacillus subtilis at 50 ug/disk by standard disk method

Measured: Activity

CC1=C/C(=C/[C@@H](C)CCC/C(C)=C/CC/C(C)=C/CCc2ccoc2)OC1=O
active: all assays above
